Results as given in patent US8957114B2, “Formulations, salts and polymorphs of transnorsertraline and uses thereof” (Sunovion Pharmaceuticals Inc., priority 2009, dated 2015).
Read-outs that look alike come from different tables or passages of the source. Marks after values point to notes of the source that are not given here.

Columns and labels:
[1] = Solubility of transnorsertraline salts in aqueous buffer systems (SGF, acetate buffer pH 4.5, SIF; HPLC); type: physicochemical
Experimental: Saturated solutions with excess solids were prepared in 20 mL clear glass scintillation vials. Simulated gastric fluid (pH 1.0, ˜0.1N HCl, 0.03M NaCl, no enzymes), simulated intestinal fluid (pH 6.8, 0.05M KH2PO4, ˜0.02N NaOH, no enzymes), and acetate buffer (pH 4.5, 0.02M sodium acetate, 0.03M acetic acid) were prepared in accordance with USP28 (USP28 Test Solutions p2855, Volumetric Solutions p2863). […] Solubility was determined using a HPLC method.

[2] = Thermal gravimetric analysis (TGA) weight loss; type: physicochemical; conditions: heated 25° C. to 325° C. at 10° C./min
Experimental: (§1) The sixteen salts of transnorsertraline of Example 6.14 were analyzed for moisture content and hygroscopicity. Each salt was analyzed by coulometric titration using an EM Scientific Aquastar C3000 titrator to determine water content. Sample size ranged from 18 mg to 134 mg. Each salt was analyzed using a Perkin Elmer TGA 7 Thermal Gravimetric Analyzer (TGA). […] Moisture sorption isotherms for each salt were generated using the VTI SGA-100 Symmetric Vapor Sorption Analyzer. Samples were run as received without pre-analysis drying. Equilibrium criteria were the lesser of 0.01 wt % change in 5 minutes or 180 minutes at each relative humidity (RH) step. Temperature was fixed at 25° C. and the relative humidity steps (25 to 95% to 25%) were in 5% increments. Analysis was repeated for each sample in consecutive analyses (sample was not removed from analyzer). Sample sizes ranged from 18 mg to 35 mg.

[3] = Solubility of transnorsertraline salts in de-ionized water (HPLC); conditions: saturated solution in de-ionized water
Experimental: For each salt, saturated solutions with excess solids in deionized water were prepared in 20 mL clear glass scintillation vials with screw caps. All samples were shaken at 300 rpm at ambient conditions for up to nine days until equilibrium was achieved. Solubility was determined using a HPLC method (Table 5).

[4] = Moisture content by coulometric Karl Fischer titration (KF); type: physicochemical
Experimental: as §1, with “Each” for “The sixteen salts of transnorsertraline of Example 6.14 were analyzed for moisture content and hygroscopicity. Each”, “Sample size ranged from 18 mg to 134 mg.” left out, “Temperature was fixed at 25° C. and the relative humidity steps (25 to 95% to 25%) were in 5% increments.” left out

[5] = VTI moisture sorption isotherm (hygroscopicity); type: physicochemical; conditions: for VTI Adsorp. (% wt gain 25 to 95% RH) / VTI Desorp. (% wt loss 95 to 25% RH): 25° C.
Experimental: as §1, with “Each” for “The sixteen salts of transnorsertraline of Example 6.14 were analyzed for moisture content and hygroscopicity. Each”, “Sample size ranged from 18 mg to 134 mg.” left out, “Temperature was fixed at 25° C. and the relative humidity steps (25 to 95% to 25%) were in 5% increments.” left out

[6] = Polymorphic conversion of anhydrous transnorsertraline hydrochloride to hydrate in aqueous media, in-situ Raman monitoring; type: physicochemical; conditions: 37° C.
Experimental: The study of the conversion of anhydrous transnorsertraline hydrochloride to the hydrate form in aqueous media was investigated, using in-situ Raman monitoring.
Raman spectroscopy was performed using a Kaiser Optical Systems Inc. dispersive RamanRXN3 for on-line or in-situ reaction monitoring. The RamanRXN3 system uses an excitation wavelength of 785 nm, with an external cavity-stabilized, diode laser. All spectra were acquired using a ¼″ immersion probe with approximately 100 mW of laser power at the tip of the probe. Different exposure times and numbers of spectrum accumulations were used for the analysis of the two dry samples. An exposure time of 4 seconds with 2 accumulations was used for the monitoring of all form conversions experiments. Wavelength and laser wavelength calibration were performed using an internal neon standard, and diamond Raman shift standard, respectively. The intensity calibration was performed using a Kaiser Raman calibration accessory.
Regions 660-715 cm^−1 and 1430-1490 cm^−1 in particular show little overlapping of the peaks characteristic of each form. Experimental results confirmed that no peaks in the regions […] and 1430-1490 cm^−1 were likely to overlap with peaks of interest to follow the conversion between the two crystalline forms of transnorsertraline hydrochloride.
The conversion of anhydrous transnorsertraline hydrochloride to the monohydrate form was monitored in water. […] Based on the peak intensity ratio I(677 cm^−1)/I(695 cm^−1), an induction time of approximately 1.1 hour was seen before the beginning of the conversion. The end of the conversion was estimated at approximately 2 hours from the beginning of the slurry. […] XRPD analysis of the solids collected at the end of the Raman monitoring of the conversion (after approximately 2 h 10 min) was consistent with the hydrate form, with a small amount of anhydrous form detectable. […] Additionally, the Raman limit of detection of the anhydrous form in the mixture was not estimated.
The conversion of anhydrous transnorsertraline hydrochloride to the hydrate form in water, simulated gastric fluid (SGF) and simulated intestinal fluid (SIF) without enzymes, and 0.1N HCl was monitored at 37° C.
Overall, similar results were obtained in water and simulated gastric fluid, with the start of the form conversion detected at approximately 1.3 hours, with a slightly faster conversion in simulated gastric fluid compared to water. The complete conversion was estimated to occur within 3 to 4 hours in the two media. […] XPRD analysis of the solids collected at the end of each experiments were consistent with the hydrate form, with or without some anhydrous form present. The small amount of anhydrous form may be due to residual solids on the walls of the vessel at the time of the slurry.

[7] = saturated solution in 0.05M Acetate Buffer (pH 4.5)
[8] = saturated solution in Simulated Gastric Fluid
[9] = saturated solution in Simulated Intestinal Fluid
[10] = first analysis, listed as Acetate lot 1
[11] = first analysis, listed as Acetate lot 2
[12] = first analysis, listed as Acetate lot 3
[13] = repeated consecutive analysis (second line)
[14] = repeated consecutive analysis (second line), listed as Acetate lot 1
[15] = repeated consecutive analysis (second line), listed as Acetate lot 2
[16] = repeated consecutive analysis (second line), listed as Acetate lot 3
[17] = first analysis, listed as L-malate lot 1
[18] = first analysis, listed as L-malate lot 2
[19] = first analysis, listed as L-malate lot 3
[20] = SIF without enzymes, small scale

Transnorsertraline Acetate
Solubility in Freebase Equivalents mgA/mL ([1]; pH 1): 0.07 mgA/mL | Solubility in Freebase Equivalents mgA/mL ([1]; pH 4.5): 3.12 mgA/mL | Solubility in Freebase Equivalents mgA/mL ([1]; pH 6.8): 0.25 mgA/mL | pH [1, 7]: 4.79 | pH [1, 8]: 1.26 | pH [1, 9]: 6.63 | TGA (% wt loss) [2]: 0.53 % wt loss | TGA (% wt loss) ([2]; listed as Acetate lot 1): 0.43 % wt loss | pH [3]: 6.31 | Initial KF (% H2O) [4]: 0.03 % H2O | Initial KF (% H2O) ([4]; listed as Acetate lot 1): 0.03 % H2O | Initial KF (% H2O) ([4]; listed as Acetate lot 2): 0.07 % H2O | Initial KF (% H2O) ([4]; listed as Acetate lot 3): 0.05 % H2O | VTI Adsorp. (% wt gain 25 to 95% RH) ([5]; first analysis): 0.07 % wt gain | VTI Desorp. (% wt loss 95 to 25% RH) ([5]; first analysis): 0.08 % wt loss | VTI Adsorp. (% wt gain 25 to 95% RH) [5, 10]: 0.07 % wt gain | VTI Desorp. (% wt loss 95 to 25% RH) [5, 10]: 0.08 % wt loss | VTI Adsorp. (% wt gain 25 to 95% RH) [5, 11]: 0.22 % wt gain | VTI Desorp. (% wt loss 95 to 25% RH) [5, 11]: 0.23 % wt loss | VTI Adsorp. (% wt gain 25 to 95% RH) [5, 12]: 0.33 % wt gain | VTI Desorp. (% wt loss 95 to 25% RH) [5, 12]: 0.38 % wt loss | VTI Adsorp. (% wt gain 25 to 95% RH) [5, 13]: 0.08 % wt gain | VTI Desorp. (% wt loss 95 to 25% RH) [5, 13]: 0.09 % wt loss | VTI Adsorp. (% wt gain 25 to 95% RH) [5, 14]: 0.08 % wt gain | VTI Desorp. (% wt loss 95 to 25% RH) [5, 14]: 0.09 % wt loss | VTI Adsorp. (% wt gain 25 to 95% RH) [5, 15]: 0.23 % wt gain | VTI Desorp. (% wt loss 95 to 25% RH) [5, 15]: 0.23 % wt loss | VTI Adsorp. (% wt gain 25 to 95% RH) [5, 16]: 0.35 % wt gain | VTI Desorp. (% wt loss 95 to 25% RH) [5, 16]: 0.35 % wt loss

Transnorsertraline L-Malate
Solubility in Freebase Equivalents mgA/mL ([1]; pH 1): 0.08^b mgA/mL | Solubility in Freebase Equivalents mgA/mL ([1]; pH 4.5): 1.59^b mgA/mL | Solubility in Freebase Equivalents mgA/mL ([1]; pH 6.8): 0.38 mgA/mL | pH [1, 7]: 4.42 | pH [1, 8]: 1.15 | pH [1, 9]: 6.68 | TGA (% wt loss) [2]: 0.07 % wt loss | TGA (% wt loss) ([2]; listed as L-malate lot 1): 0.08 % wt loss | pH [3]: 4.15 | Initial KF (% H2O) [4]: 0.05 % H2O | Initial KF (% H2O) ([4]; listed as L-malate lot 1): 0.05 % H2O | Initial KF (% H2O) ([4]; listed as L-malate lot 2): 0.08 % H2O | Initial KF (% H2O) ([4]; listed as L-malate lot 3): 0.04 % H2O | VTI Adsorp. (% wt gain 25 to 95% RH) ([5]; first analysis): 0.08 % wt gain | VTI Desorp. (% wt loss 95 to 25% RH) ([5]; first analysis): 0.08 % wt loss | VTI Adsorp. (% wt gain 25 to 95% RH) [5, 17]: 0.08 % wt gain | VTI Desorp. (% wt loss 95 to 25% RH) [5, 17]: 0.08 % wt loss | VTI Adsorp. (% wt gain 25 to 95% RH) [5, 18]: 0.06 % wt gain | VTI Desorp. (% wt loss 95 to 25% RH) [5, 18]: 0.07 % wt loss | VTI Adsorp. (% wt gain 25 to 95% RH) [5, 19]: 5.31 % wt gain | VTI Desorp. (% wt loss 95 to 25% RH) [5, 19]: 5.23 % wt loss | VTI Adsorp. (% wt gain 25 to 95% RH) [5, 13]: 0.06 % wt gain | VTI Desorp. (% wt loss 95 to 25% RH) [5, 13]: 0.06 % wt loss | VTI Adsorp. (% wt gain 25 to 95% RH) ([5]; repeated consecutive analysis (second line), listed as L-malate lot 1): 0.06 % wt gain | VTI Adsorp. (% wt gain 25 to 95% RH) ([5]; repeated consecutive analysis (second line), listed as L-malate lot 2): 0.07 % wt gain | moisture adsorbed more than other L-malate lots ([5]; from 25 to 95% relative humidity): > 5%

transnorsertraline hydrochloride [HCl]
Solubility in Freebase Equivalents mgA/mL [1]: 0.13 mgA/mL | Solubility in Freebase Equivalents mgA/mL ([1]; pH 4.5): 2.15 mgA/mL | Solubility in Freebase Equivalents mgA/mL ([1]; pH 6.8): 0.24 mgA/mL | pH [1, 7]: 4.58 | pH [1, 8]: 1.28 | pH [1, 9]: 6.75 | TGA (% wt loss) [2]: 0.00 % wt loss | pH [3]: 5.32 | Initial KF (% H2O) [4]: 0.02 % H2O | VTI Adsorp. (% wt gain 25 to 95% RH) ([5]; first analysis): 0.01 % wt gain | VTI Desorp. (% wt loss 95 to 25% RH) ([5]; first analysis): 0.02 % wt loss | VTI Adsorp. (% wt gain 25 to 95% RH) [5, 13]: 0.01 % wt gain | VTI Desorp. (% wt loss 95 to 25% RH) [5, 13]: 0.02 % wt loss | VTI adsorption, weight gain ([5]; second lot, from 25 to 95% relative humidity): 0.01% | VTI desorption, weight loss ([5]; second lot, from 95% to 25% relative humidity): 0.01% | form conversion completed ([6]; 0.1N HCl): approximately 4 hours | induction time of form conversion ([6]; 0.1N HCl, larger scale): 2 to 2.3 h | form conversion completed ([6]; SGF without enzymes): 3 to 4 h | start of form conversion to hydrate ([6]; SGF without enzymes): approximately 1.3 hours | end of form conversion ([6]; SIF without enzymes, large scale): ~36 h | start of form conversion to hydrate ([6]; SIF without enzymes, larger scale): ~19 h | end of form conversion [6, 20]: approximately 12.5 hours | start of form conversion to hydrate [6, 20]: ~10 h | form conversion completed ([6]; water): 3 to 4 h | start of form conversion to hydrate ([6]; water): approximately 1.3 hours
